From US12150750B2, “D-glucose and its analogs as tracers to assess the glucose transporter function on blood-cerebrospinal fluid barrier and the functioning of the brain lymphatic system” (The Johns Hopkins University, priority 2020, dated 2024)

How the values were obtained:
[1] = literature reference 28; cited from earlier work
[2] = DGE onVDMP MRI at 3 T of D-glucose uptake and clearance in CSF of WT and APP/PS1 mice; assay type: in vivo, mouse; details: for ΔS at 2 min (CSF DGE signal difference) / ΔS at 30 min (CSF DGE signal difference): n=5
Description: All animal experiments were approved by the Animal Ethics Committee and followed the institutional guidelines of Institutional Laboratory Animal Research Unit of City University of Hong Kong. […] APP/PS1 mice are double transgenic mice expressing a chimeric mouse/human amyloid precursor protein (Mo/HuAPP695swe) and a mutant human presenilin 1 (PS1-dE9), both directed to CNS neurons. Both mutations are associated with early-onset AD. Another six 6M WT mice were used for the control experiments.
The onVDMP sequence diagram is shown in (a) of FIG. 3. By setting a different binomial pulse number N, the saturation length is adjusted to image the parenchyma and CSF, respectively. In this study, the saturation length was set to 60 ms for imaging parenchyma and 900 ms for imaging CSF. DGE experiments on both parenchyma and CSF images are acquired in an alternate way in some embodiments during one acquisition, similar to the experiments in example 1.
When carrying out the MRI experiments on mice, anesthesia was induced and maintained using isoflurane at 2% and 1.5%, respectively. The isoflurane was mixed with 90% oxygen generated by an oxygen concentrator. The flow rate of oxygen generator was set to 2 liter per minute (LPM) and kept unchanged during the whole experiment. Mice were placed in a horizontal bore 3 T Bruker BioSpec animal scanner (Bruker, Germany). A 82-mm-diameter quadrature coil and a 23-mm-diameter mouse brain surface coil were used for transmitting and receiving signal, respectively. A catheter was placed in the tail vein for glucose administration before placing the animal in the scanner. A bolus of 0.15 mL filtered 50% D-glucose was injected into the mouse body through the tail vein over one minute (speed: 0.15 ml/min) using a MRI-compatible syringe pump (Harvard Apparatus). Mouse body temperature was maintained at 37° C. using a warming pad. Respiration and body temperature were continuously monitored using an MRI-compatible monitor system (SA Instruments, Inc). Before DGE acquisition, the B0 field over the mouse brain was shimmed using field-mapping and second-order shimming. The read-out module was rapid acquisition with refocused echoes (RARE) with TR/TE=2.5 s/4.7 ms, RARE factor=32, centric encoding, slice thickness=2 mm, a matrix size of 96×96 within a field of view (FOV) of 20×20 mm^2, resulting in a time resolution of 15 s for each pair of images (7.5 s for parenchyma and 7.5 s for CSF). A total number of 550 images were acquire for each DGE module, thus leading to a total scanning time of 1 h8 min 45 s. The glucose injection was started at 8 min 45 s and lasted for 1 min. […] The image slice was positioned based on a collected sagittal image of the mouse brain with the position of the coronal image slice set to −1.4 mm with respect to the anterior commissure (AC).
All image processing and data analyses were performed using custom written code in MATLAB (R2018b, MathWorks, USA). When calculating DGE kinetic curves, baseline signal Sbase was generated by averaging the 30 baseline images. Since the total number of DGE images was large ([…] for each mouse), every set of 15 images were averaged to visualize the dynamic process of glucose changes. Then Eq. 5 was used for each time point to construct the DGE kinetic curves after glucose administration.
The DGE data of CSF were fitted by a simple gamma variate model(66,67) for only the first 20 mins after glucose injection, giving an uptake rate and an estimate of the initial rate of clearance:
where A is an amplitude modulation parameter, μin represents the glucose uptake rate, μout represents the initial rate of clearance. […] The maximum signal that CSF DGE reached is directly extracted in some embodiments after fitting as Smax=max(ΔS′CSF(t)). For both parenchymal and CSF DGE curves, fitting was achieved using the built-in nonlinear least-squares curve fitting function in MATLAB. […]

[3] = Validation of glucose uptake in brain using an MRS method; assay type: in vivo; details: mouse, intravenous, BALB/c mice, read-out: half-life time of glucose uptake measured by MRS
Description: (§1) The study was carried out under the approval of Johns Hopkins University animal care and use. Four female Tau4RΔK (Tau) mice (49) with an age of 7-8 months and four female age-matched C57BL/6J mice were used for the AD study. Two age-matched BALB/c mice were used for the validation of glucose uptake using an MRS method. The Tau mice were bred at Johns Hopkins University and the onset of tau tangles starts at the age of six months (49). A catheter was placed in the tail vein for glucose administration before placing the animal in the scanner.

[4] = Dynamic glucose enhanced (DGE) onVDMP MRI at 11.7 T of glucose uptake in brain parenchyma and CSF of WT and Tau mice; assay type: in vivo, mouse; details: for fitted ADGE (amplitude of glucose uptake at equilibrium) of parenchyma: i.v. bolus 0.15 mL 50% glucose, n=4; for half-life: female, mouse, 0.15 mL of 50% w/w glucose (0.5 g/mL)
Description: as §1
All MRI experiments were performed on a horizontal bore 11.7 T Bruker Biospec system (Bruker, Ettlingen, Germany) equipped with actively shielded gradients, with a maximum strength of 74 Gauss/cm. A 72 mm quadrature volume resonator was used as a transmitter and a 2×2 mouse phased array coil for acquisition. All animals were anesthetized using 2% isoflurane in medical air, followed by 1% to 1.5% isoflurane for maintenance during the MRI scan. The mouse head was positioned using a bite bar and two ear pins. During the MRI scan, mice were placed on a water-heated animal bed. Respiratory rate was monitored via a pressure sensor (SAII, Stony Brook, NY, USA) and maintained at 40-60 breaths per minute. The B0 field over the mouse brain was adjusted using field-mapping and second-order shimming.
The MRI sequence used for monitoring the glucose uptake in brain and CSF was onVDMP, illustrated in (a) of FIG. 3. The duration of each binomial pulse pair was 3 ms, and the length of a saturation module was proportional to the total number of binomial pulse pairs. Two independent onVDMP sequences with different saturation-module lengths (i.e. 36 ms and 300 ms) were repeated in an interleaved fashion to detect the glucose uptake in brain parenchyma and CSF, respectively. Other imaging parameters were: TR/TE=2.5 s/5 ms, RARE factor=23, slice thickness=1 mm, a matrix size of 196×128 within a FOV of 20×10 mm^2. The scan time for each onVDMP experiment was fixed to 7.5 s and the dynamic glucose enhanced (DGE) images were acquired continuously for 27.5 min. A bolus of 0.15 mL 50% w/w glucose (0.5 g/mL, clinical-grade dextrose, Hospira, Lake Forest, IL) was given at 10th min of the dynamic experiment through the tail vein using a syringe pump (Harvard Apparatus Holliston, MA, USA). The first five minutes of dynamic scan were used as dummy scans to make sure system reached steady-state.
According to R1ρ theory (50-52), the water signal intensity (S) after applying an onVDMP sequence is expressed in some embodiments as: S=S0e^−T^onvDMP^R^1ρ (1)
where S0 is the water signal intensity without saturation. Because ΔR1ρ induced by glucose infusion is relatively small (41-43,53,54), the normalized change of water signal intensity ΔZ is approximated in some embodiments as: ΔZ=(Sbase−S)/Sbase=1−e^−T^onvDMP^ΔR^1ρ≈TonVDMPΔR1ρ (2)
where Sbase is the referenced water signal intensity. In this study, the average of water signal intensity before glucose infusion was used as Sbase. The dynamic images are calculated in some embodiments by averaging N images within a certain time period (55): Save=Σn=1^NΔZ(n)/N (3)
To correct for motion between DGE images, image registration was applied using Medical Imaging Registration Toolbox (MIRT) (56). The regions of interest (ROIs) were selected by hand with the reference to mouse brain atlas (https://mouse.brain-map.org).
The glucose uptake curves measured by DGE MRI are fitted using exponential functions in some embodiments to allow quantitative comparison: ΔDGE(t)=ADGE(1−e^−t/T^u,DGE) (4)
where ΔDGE(t) is the DGE signal difference determined by onVDMP MRI. Tu,DGE is the glucose uptake lifetime. The half-life time of glucose uptake was calculated by the equation: Thalf=Tu*0.6931. ADGE represents the amplitudes of glucose uptake at equilibrium measured by onVDMP. […]

ΔS at 2 min (CSF DGE signal difference) ([2]; APP/PS1 mice 6M): 12.70±2.30%
ΔS at 30 min (CSF DGE signal difference) ([2]; APP/PS1 mice 6M): 11.84±4.13%
ΔS at 2 min (CSF DGE signal difference) ([2]; WT mice 6M, i.v. bolus 0.15 mL 50% D-glucose): 14.56±2.86%
ΔS at 30 min (CSF DGE signal difference) ([2]; WT mice 6M): 3.18±2.95%
D-glucose uptake rate μin, WT versus APP/PS1 ([2]; mouse, in vivo): no significant difference
Smax (maximum CSF DGE signal), APP/PS1 versus WT ([2]; mouse, in vivo): significantly lower
washout initial rate μout of D-glucose in CSF, APP/PS1 compared to WT ([2]; mouse, in vivo): significantly slower
half-life [3]: 4.16 ± 0.69 min
fitted ADGE (amplitude of glucose uptake at equilibrium) of parenchyma ([4]; Tau4RΔK mice, cortex): 1.70±1.33%
CSF ADGE ([4]; Tau mice, CSF): 6.72±2.22%
time at which DGE signal reached a plateau ([4]; Tau mice, CSF): around 25 min
glucose uptake in the cortex (DGE signal intensity) ([4]; Tau mice, cortex): 1.6±1.3%
fitted ADGE (amplitude of glucose uptake at equilibrium) of parenchyma ([4]; WT mice (C57BL/6J), cortex): 5.42±0.70%
CSF ADGE ([4]; WT mice, CSF): 7.03±2.12%
drop of DGE signal from the peak value at 27.5 minutes ([4]; WT mice, CSF): about 1.5±0.5%
peak value of DGE signal ([4]; WT mice, CSF): 6±0.3%
time at which DGE signal plateaued ([4]; WT mice, CSF): around 10 min
time at which DGE signal reaches a maximum before decay ([4]; WT mice, CSF): around 15 minutes
glucose uptake in the cortex (DGE signal intensity) ([4]; WT mice, cortex): 4.3±1.3%
half-life ([4]; C57BL/6J, brain parenchyma (cortex), iv, WT mice, cortex, read-out: uptake half-life time of parenchyma): 4.71 ± 1.03 min
half-life ([4]; C57BL/6J, intravenous, brain tissue of WT mice, as restated in discussion, read-out: half-life time of glucose uptake obtained by the onVDMP method): 4.71 ± 1.18 min
half-life ([4]; C57BL/6J, iv, WT mice, CSF, read-out: uptake half-life time of CSF): 1.24 ± 0.24 min
half-life ([4]; Tau4RΔK, brain parenchyma (cortex), iv, Tau mice, cortex, read-out: uptake half-life time of parenchyma): 5.14 ± 0.3 min
half-life ([4]; Tau4RΔK, iv, Tau mice, CSF, read-out: uptake half-life time of CSF): 7.8 ± 1.14 min
time at which glucose uptake reaches a plateau ([4]; parenchymal ROI (cortex), both WT and Tau mice): about 20 min
SMILES: O=C[C@H](O)[C@@H](O)[C@H](O)[C@H](O)CO [D-glucose]
half-life time of glucose uptake, previous 13C MRS measurements [1]: 5.10 ± 0.11 min
